# According to patent publication KR20180032031A, “이소디메틸웨델로락톤을 포함하는 화장료 조성물” (주식회사 엘지생활건강, priority 2016, dated 2018):
# Tests used:
# [1] = Anti-glycation effect (L-arginine and glucose); conditions: 70 ℃, 4 h, 420 nm
# [2] = tested on: RAW264.7 cells, nitric oxide (NO) [RAW264.7 세포, 일산화질소(NO)]; test: NO production inhibition in LPS-stimulated RAW264.7 cells (GRIESS method); type: cell-based; conditions: Mus musculus, LPS 1 ㎍, 24 h, read-out: NO production inhibition rate
# [3] = tested on: human-derived fibroblasts, type I collagen [인간 유래 섬유아세포, 제1형 콜라겐]; test: Type I collagen synthesis promotion in human-derived fibroblasts (PICP EIA kit); type: cell-based; conditions: 48 h, n = 4
# [4] = Free radical scavenging (DPPH), antioxidant effect; conditions: 37 ℃, 30 min, 520 nm, n = 3
# [5] = tested on: B-16 mouse melanoma cells [쥐의 멜라노마 세포(B-16 mouse melanoma cell)]; test: Melanin total amount reduction in B-16 mouse melanoma cells (whitening effect); type: cell-based; conditions: 3 days, n = 3; for melanin production amount: absorbance at 400 nm per 1×10^6 cells
# elastase [엘라스타제] = target: T1, elastase [엘라스타제] (Homo sapiens, UniProt P08246); test: Elastase activity inhibition; type: biochemical; conditions: pH 7.5, room temperature, n = 3; for enzyme activity: slope of absorbance at 405 nm
# T1 construct: 엘라스타제(elastase)는 사람의 백혈구 세포로부터 유래한 것을 사용하였고; from tissue; host or cells: human leukocytes
# T1 sequence (P08246 30-267): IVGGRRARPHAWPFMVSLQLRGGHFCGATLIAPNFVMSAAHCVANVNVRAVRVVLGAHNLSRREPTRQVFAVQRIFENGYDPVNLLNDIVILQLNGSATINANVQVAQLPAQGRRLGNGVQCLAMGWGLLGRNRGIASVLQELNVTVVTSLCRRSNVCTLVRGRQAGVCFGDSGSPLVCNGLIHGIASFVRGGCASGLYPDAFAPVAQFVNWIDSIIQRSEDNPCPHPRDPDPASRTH
# collagenase [콜라게네이즈] = test: Collagenase activity inhibition; type: biochemical, rat/mouse; conditions: pH 7.5, room temperature, n = 3; for enzyme activity: maximum slope of absorbance at 345 nm; for inhibition rate: collagenase
structure (smiles),measurement,setting,value
"N=C(N)NN [Aminoguanidine, reference compound]",inhibition rate,[1]; 55 ppm,54.89%
"CNC(=N)NCCC[C@H](N)C(=O)O [L-NMMA, L-NG-Monomethylarginine, reference compound]",inhibition at 10 ppm,[2],41%
"O=C1O[C@H]([C@@H](O)CO)C(O)=C1O [비타민 C, L-Ascorbic acid, reference compound]",type I collagen production amount,[3]; 50 ppm,246.8 ng/mL
same,activation at 50 ppm,"[3]; Homo sapiens, Fibroblast, collagen production vs negative control, 50 ppm, read-out: increase rate",64.3%
same,free radical scavenging rate (IC50),[4],7.5
"OC[C@H]1O[C@@H](Oc2ccc(O)cc2)[C@H](O)[C@@H](O)[C@@H]1O [알부틴, reference compound]",melanin production amount,[5]; 100 ppm,0.228 abs
same,inhibition at 100 ppm,"[5]; Mus musculus, 72 h, total melanin vs negative control, 100 ppm, read-out: inhibition rate",30.9%
"O=c1oc2c(O)cc(O)cc2c2oc3cc(O)c(O)cc3c12 [화학식1의 화합물, 2,4,8,9-tetrahydroxy-[1]benzofuro[3,2-c]chromen-6-one]",type I collagen production amount,[3]; 1 ppm,180.3 ng/mL
same,type I collagen production amount,[3]; 10 ppm,260.1 ng/mL
same,activation at 1 ppm,"[3]; Homo sapiens, Fibroblast, collagen production vs negative control, 1 ppm, read-out: increase rate",20%
same,activation at 10 ppm,"[3]; Homo sapiens, Fibroblast, collagen production vs negative control, 10 ppm, read-out: increase rate",73.2%
same,inhibition rate,[1]; 25 ppm,44.32%
same,inhibition rate,[1]; 50 ppm,65.20%
same,melanin production amount,[5]; 1 ppm,0.251 abs
same,melanin production amount,[5]; 10 ppm,0.232 abs
same,inhibition at 1 ppm,"[5]; Mus musculus, 72 h, total melanin vs negative control, 1 ppm, read-out: inhibition rate",23.9%
same,inhibition at 10 ppm,"[5]; Mus musculus, 72 h, total melanin vs negative control, 10 ppm, read-out: inhibition rate",29.7%
same,enzyme activity,elastase [엘라스타제]; 10 ppm,3.7
same,enzyme activity,elastase [엘라스타제]; 20 ppm,3.2
same,inhibition at 10 ppm,"elastase [엘라스타제]; elastase, 10 ppm, read-out: inhibition rate",64.4%
same,inhibition at 20 ppm,"elastase [엘라스타제]; elastase, 20 ppm, read-out: inhibition rate",69.1%
same,inhibition at 1 ppm,[2]; 1 ppm,36.2%
same,inhibition at 10 ppm,[2],43.9%
same,inhibition at 100 ppm,[2]; 100 ppm,55.2%
same,enzyme activity,collagenase [콜라게네이즈]; 100 ppm,-2.34
same,enzyme activity,collagenase [콜라게네이즈]; 200 ppm,-2.61
same,inhibition rate,collagenase [콜라게네이즈]; 100 ppm,24.57%
same,inhibition rate,collagenase [콜라게네이즈]; 200 ppm,32.37%
